According to patent publication US11691949B2, “Quinoline sulfonamide compounds and their use as antibacterial agents” (OTAGO INNOVATION LIMITED, priority 2017, dated 2023):
≈ marks a conversion by molar mass, not a printed value. Where two headings read alike, the source gives them in different places.

Key:
Type in all cases: cell-based
S. uberis ATCC 19436 = assay: MIC by broth microdilution, S. uberis; conditions: Streptococcus uberis, read-out: S. uberis ATCC 19436 MIC
Method: (§1) Antibacterial susceptibility testing was performed in triplicate (biological) by measuring minimum inhibitory concentrations (MICs) by broth microdilution in 96-well flat bottom microtiter plates (ThermoFisher Scientific, New Zealand). S. uberis ATCC 19436, S. aureus ATCC 6538, or E. coli ATCC 10596 cells grown overnight were diluted to an OD600 of approximately 0.025, so that the final concentration of cells in the MIC assay was approximately 5×10^5 cfu/mL in media as follows: S. uberis; Todd Hewitt Broth (THB), S. aureus; Tryptic Soy Broth (TSB) and Cation Adjusted Muller Hinton Broth (CAMHB), and E. coli; Lysogeny Borth (LB) and CAMHB, before being dispensed into microtiter wells. As required additional sterile Zinc Sulphate (Heptahydrate) was supplemented into the media, so the final concentration was 50 μM. Test compounds were added to starting wells and two-fold serial dilutions were undertaken to generate a range of inhibitor concentrations at a final volume of 200 μl. Media and test compound-free (untreated) controls were included in each microtiter plate in triplicate. After 24 h incubation at 37° C. and 200 rpm, the OD600 of wells were read using a Varioskan Flash plate reader (ThermoFisher Scientific, New Zealand). The MIC was reported as the lowest concentration of the test compound for which no growth occurred, as determined by OD600 readings. The minimum bactericidal concentration (MBC) was determined using the Miles-Misra drop-plate method to measure the viability of cells in response to test compound challenge.

E. coli ATCC 10596 = assay: MIC by broth microdilution, E. coli; conditions: Escherichia coli, read-out: E. coli ATCC 10536 MIC
Method: as §1

S. aureus ATCC 6538 = assay: MIC by broth microdilution, S. aureus; conditions: Staphylococcus aureus, read-out: S. aureus ATCC 6538 MIC
Method: as §1

[1] = ATCC 10536 / ATCC 10596, No Zinc
[2] = ATCC 10536 / ATCC 10596, Zinc (50 μM)

Structure (SMILES) | MIC (S. uberis ATCC 19436; ATCC19436, No Zinc) [µg/mL] | MIC (S. uberis ATCC 19436; ATCC19436, Zinc (50 μM)) [µg/mL] | MIC (E. coli ATCC 10596; [1]) [µg/mL] | MIC (E. coli ATCC 10596; [2]) [µg/mL] | MIC (S. aureus ATCC 6538; ATCC6538, No Zinc) [µg/mL] | MIC (S. aureus ATCC 6538; ATCC6538, Zinc (50 μM)) [µg/mL]
NCc1ccc2cccc(NS(=O)(=O)c3ccc(C(F)(F)F)cc3)c2n1 [ZDR184, N-(2-(Aminomethyl)quinolin-8-yl)-4-(trifluoromethyl)benzenesulfonamide] | 32 (≈ 83.9 µM) | 0.5 (≈ 1.31 µM) | 64 (≈ 168 µM) | 128 (≈ 336 µM) | 8 (≈ 21 µM) | 4 (≈ 10.5 µM)
CC(C)CNCc1ccc2cccc(NS(=O)(=O)c3ccc(C(F)(F)F)cc3)c2n1 [ZDR403, N-(2-((Iso-Butylamino)methyl)quinolin-8-yl)-4-(trifluoromethyl)benzenesulfonamide] | 16 (≈ 36.6 µM) | 0.125 (≈ 0.286 µM) | 64 (≈ 146 µM) | 256 (≈ 585 µM) | 32 (≈ 73.1 µM) | 128 (≈ 293 µM)
CN(C)Cc1ccc2cccc(NS(=O)(=O)c3cccc4cnccc34)c2n1 [ZDR339, N-(2-((Dimethylamino)methyl)quinolin-8-yl)isoquinoline-5-sulfonamide] | 256 (≈ 652 µM) | 2 (≈ 5.1 µM) | > 256 | > 256 | > 256 | > 256
CS(=O)(=O)NCCNCc1ccc2cccc(NS(=O)(=O)c3ccc(C(F)(F)F)cc3)c2n1 [ZDR180, N-(2-(((2-(Methylsulfonamido)ethyl)amino)methyl)quinolin-8-yl)-4-(trifluoromethyl)benzenesulfonamide] | > 256 | 0.5 (≈ 0.995 µM) | 128 (≈ 255 µM) | > 256 | 64 (≈ 127 µM) | 256 (≈ 509 µM)
CC(C)(C)OC(=O)N1CCCC(C(=O)N/N=C/c2ccc3cccc(NS(=O)(=O)c4ccc(C(F)(F)F)cc4)c3n2)C1 (mixture of isomers) [ZDR123, tert-Butyl (E/Z)-3-(2-((8-((4-(trifluoromethyl)phenyl)sulfonamido)quinolin-2-yl)methylene)hydrazine-1-carbonyl)piperidine-1-carboxylate] | > 256 | 0.125 | > 256 | > 256 | > 256 | > 256
COc1ccc(S(=O)(=O)Nc2cccc3ccc(CN(C)C)nc23)cn1 [ZDR258, N-(2-((Dimethylamino)methyl)quinolin-8-yl)-6-methoxypyridine-3-sulfonamide] | 256 (≈ 687 µM) | 0.125 (≈ 0.336 µM) | > 256 | > 256 | > 256 | > 256
CN(C)Cc1ccc2cccc(NS(=O)(=O)C(F)(F)F)c2n1 [ZDR079, N-(2-((Dimethylamino)methyl)quinolin-8-yl)-1,1,1-trifluoromethanesulfonamide] | > 256 | 0.5 (≈ 1.5 µM) | > 256 | 64 (≈ 192 µM) | > 256 | 256 (≈ 768 µM)
CC(C)(C)OC(=O)CNCc1ccc2cccc(NS(=O)(=O)c3ccc(C(F)(F)F)cc3)c2n1 [ZDR041, N-(2-(((tert-Butoxycarbonylmethyl)amino)methyl)quinolin-8-yl)-4-(trifluoromethyl)benzenesulfonamide] | > 256 | 0.5 (≈ 1.01 µM) | > 256 | > 256 | 64 (≈ 129 µM) | > 256
CC(=O)NCc1ccc2cccc(NS(=O)(=O)c3ccc(C(F)(F)F)cc3)c2n1 [ZDR185, N-((8-((4-(Trifluoromethyl)phenyl)sulfonamido)quinolin-2-yl)methyl)acetamide] | > 256 | 0.125 (≈ 0.295 µM) | > 256 | > 256 | 256 (≈ 605 µM) | 32 (≈ 75.6 µM)
CN(C)Cc1ccc2cccc(NS(=O)(=O)c3ccccc3)c2n1 [ZDR061, N-(2-((Dimethylamino)methyl)quinolin-8-yl)benzenesulfonamide] | > 256 | 0.25 (≈ 0.732 µM) | > 256 | > 256 | > 256 | 256 (≈ 750 µM)
CN(C)Cc1ccc2cccc(NS(=O)(=O)c3cccc4cccnc34)c2n1 [ZDR340, N-(2-((Dimethylamino)methyl)quinolin-8-yl)quinoline-8-sulfonamide] | 64 (≈ 163 µM) | 0.25 (≈ 0.637 µM) | > 256 | > 256 | > 256 | 32 (≈ 81.5 µM)
CN(C)Cc1ccc2cccc(NS(=O)(=O)c3ccc(S(N)(=O)=O)cc3)c2n1 [ZDR154, N-(2-((Dimethylamino)methyl)quinolin-8-yl)benzene-1,4-disulfonamide] | > 256 | 16 (≈ 38 µM) | > 256 | > 256 | > 256 | > 256
CN(C)Cc1ccc2cccc(NS(=O)(=O)c3ccc(Br)cc3)c2n1 [ZDR305, 4-Bromo-N-(2-((dimethylamino)methyl)quinolin-8-yl)benzenesulfonamide] | > 256 | 0.0625 (≈ 0.149 µM) | > 256 | > 256 | 64 (≈ 152 µM) | 128 (≈ 305 µM)
CC(C)N(Cc1ccc2cccc(NS(=O)(=O)c3ccc(C(F)(F)F)cc3)c2n1)C(C)C [ZDR136, N-(2-((Diisopropylamino)methyl)quinolin-8-yl)-4-(trifluoromethyl)benzenesulfonamide] | > 256 | 8 (≈ 17.2 µM) | > 256 | > 256 | > 256 | > 256
O=S(=O)(Nc1cccc2ccc(CNCc3ccccn3)nc12)c1ccc(C(F)(F)F)cc1 [ZDR035, N-(2-((((Pyridin-2-yl)methyl)amino)methyl)quinolin-8-yl)-4-(trifluoromethyl)benzenesulfonamide] | 2 (≈ 4.23 µM) | 1 (≈ 2.12 µM) | 32 (≈ 67.7 µM) | > 256 | 4 (≈ 8.47 µM) | 4 (≈ 8.47 µM)
O=Cc1ccc2cccc(NS(=O)(=O)c3ccc(C(F)(F)F)cc3)c2n1 [ZDR019, N-(2-Formylquinolin-8-yl)-4-(trifluoromethyl)benzenesulfonamide] | 16 (≈ 42.1 µM) | 1 (≈ 2.63 µM) | 128 (≈ 337 µM) | 128 (≈ 337 µM) | 8 (≈ 21 µM) | 8 (≈ 21 µM)
